Results as given in ChEMBL document CHEMBL1201862, “PubChem BioAssay data set” (2004).
Values joined by “and” are separate entries in the source; they are usually repeats but may differ in a detail not shown here. Identical values can stand only once. Active and inactive are the calls of the source.

Assays:
[1] = rise of 4N DNA cells, HeLa – IC50, dose response (AID 1117351); assay type: functional, cell-based
[2] = molecular target: Delta-type opioid receptor (Homo sapiens, UniProt P41143); assay: Counterscreen for agonists of heterodimerization of the mu 1 (OPRM1) and delta 1 (OPRD1) opioid receptors: Luminescence-based cell-based high throughput dose response assay to identify agonists of OPRD1 homodimerization. [Related pubchem assays (depositor defined):AID504326, AID504355, AID504692, AID504904, AID504905]; assay type: functional
Chain of Delta-type opioid receptor (P41143 whole entry): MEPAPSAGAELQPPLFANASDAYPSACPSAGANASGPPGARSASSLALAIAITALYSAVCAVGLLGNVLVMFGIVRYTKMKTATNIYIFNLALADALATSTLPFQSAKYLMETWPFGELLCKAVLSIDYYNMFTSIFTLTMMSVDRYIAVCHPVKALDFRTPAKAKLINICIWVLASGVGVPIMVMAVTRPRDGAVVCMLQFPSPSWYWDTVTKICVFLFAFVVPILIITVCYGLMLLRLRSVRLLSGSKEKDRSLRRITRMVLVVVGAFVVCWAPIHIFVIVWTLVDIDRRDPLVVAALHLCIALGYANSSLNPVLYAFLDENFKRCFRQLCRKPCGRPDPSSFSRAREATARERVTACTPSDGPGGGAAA

[3] = HCT116 cell viability decrease, GSK3B pretreatment – CellTiter-Glo, IC50, dose response (AID 1117339); assay type: functional; details: HCT-116
[4] = cytotoxicity toward HT-29 cells – cell-based, CellTiter-Glo luminescence, IC50, dose response (AID 1117330); assay type: functional
[5] = cytotoxicity toward HCT116 cells – cell-based, CellTiter-Glo luminescence, IC50, dose response (AID 1117332); assay type: functional; details: HCT-116
Mu-type opioid receptor = Mu-type opioid receptor (Homo sapiens, UniProt P35372); assay: Counterscreen for agonists of heterodimerization of the mu 1 (OPRM1) and delta 1 (OPRD1) opioid receptors: Luminescence-based cell-based high throughput dose response assay to identify agonists of OPRM1 homodimerization.; assay type: functional;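 also: U2OS cells expressing OPRM1 and beta-arrestin as split beta-galactosidase partners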
[6] = Reduced DLD-1 viability, concentration-response, CellTiter-Glo luminescence (AID 1117352); assay type: functional
[7] = RKO cell viability reduction, dose response, CellTiter-Glo luminescence (AID 1117322); assay type: functional
[8] = SNU-C1 cell viability reduction, dose response, CellTiter-Glo luminescence (AID 1117323); assay type: functional, cell-based
[9] = molecular target: 5-hydroxytryptamine receptor 5A (Homo sapiens, UniProt P47898); assay: Counterscreen for agonists of OPRM1-OPRD1 heterodimerization: luminescence-based cell-based high throughput dose response assay to identify agonists of 5-hydroxytryptamine (serotonin) 5A receptor (HTR5A). [Related pubchem assays (depositor defined):AID504326, AID504355, AID504692, AID504904, AID504905]; assay type: functional
Chain of 5-hydroxytryptamine receptor 5A (P47898 whole entry): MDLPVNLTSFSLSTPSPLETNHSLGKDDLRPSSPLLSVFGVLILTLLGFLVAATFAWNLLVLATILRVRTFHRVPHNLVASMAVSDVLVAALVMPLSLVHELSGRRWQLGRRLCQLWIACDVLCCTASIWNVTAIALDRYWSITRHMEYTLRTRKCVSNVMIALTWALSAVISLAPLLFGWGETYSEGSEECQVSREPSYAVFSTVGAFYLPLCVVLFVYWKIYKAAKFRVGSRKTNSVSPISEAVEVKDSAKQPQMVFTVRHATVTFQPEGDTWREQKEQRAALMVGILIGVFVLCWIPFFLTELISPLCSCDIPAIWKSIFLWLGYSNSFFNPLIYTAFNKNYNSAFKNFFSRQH

[10] = rise of 2N DNA cells, HeLa – IC50, dose response (AID 1117349); assay type: functional, cell-based
[11] = CellTiter-Glo luminescence survival assay, SW480 colon tumor line, concentration-response curve, half-maximal inhibitory concentration (AID 1117338); assay type: functional
[12] = cytotoxicity toward Colo320 cells – cell-based, CellTiter-Glo luminescence, IC50, dose response (AID 1117334); assay type: functional; details: COLO 320
14-3-3 protein gamma = 14-3-3 protein gamma (Homo sapiens, UniProt P61981); assay: modulators of 14-3-3 gamma client binding – dose response (AID 711); assay type: functional
Prothrombin = Prothrombin (Homo sapiens, UniProt P00734); assay: Thrombin 1536 HTS Dose Response Confirmation. [Related pubchem assays: 1046 (Thrombin 1536 HTS; hits were confirmed in this assay)]; assay type: functional
[13] = molecular target: Induced myeloid leukemia cell differentiation protein Mcl-1 (Homo sapiens, UniProt Q07820); assay type: functional
Chain of Induced myeloid leukemia cell differentiation protein Mcl-1 (Q07820 whole entry): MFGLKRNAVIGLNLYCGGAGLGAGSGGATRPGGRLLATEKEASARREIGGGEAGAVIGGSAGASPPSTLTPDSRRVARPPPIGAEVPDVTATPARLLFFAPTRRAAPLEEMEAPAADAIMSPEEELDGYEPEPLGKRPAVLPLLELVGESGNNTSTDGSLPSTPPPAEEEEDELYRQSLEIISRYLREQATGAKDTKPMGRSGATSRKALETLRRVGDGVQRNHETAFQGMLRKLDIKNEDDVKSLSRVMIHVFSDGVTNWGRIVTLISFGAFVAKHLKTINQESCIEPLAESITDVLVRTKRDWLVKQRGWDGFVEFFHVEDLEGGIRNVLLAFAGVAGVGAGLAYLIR

[14] = molecular target: Photoreceptor-specific nuclear receptor (Homo sapiens, UniProt Q9Y5X4); assay: ligands suppressing NR2E3 nuclear receptor activity – biochemical, TR-FRET, dose response (AID 463256); assay type: functional
Chain of Photoreceptor-specific nuclear receptor (Q9Y5X4 whole entry): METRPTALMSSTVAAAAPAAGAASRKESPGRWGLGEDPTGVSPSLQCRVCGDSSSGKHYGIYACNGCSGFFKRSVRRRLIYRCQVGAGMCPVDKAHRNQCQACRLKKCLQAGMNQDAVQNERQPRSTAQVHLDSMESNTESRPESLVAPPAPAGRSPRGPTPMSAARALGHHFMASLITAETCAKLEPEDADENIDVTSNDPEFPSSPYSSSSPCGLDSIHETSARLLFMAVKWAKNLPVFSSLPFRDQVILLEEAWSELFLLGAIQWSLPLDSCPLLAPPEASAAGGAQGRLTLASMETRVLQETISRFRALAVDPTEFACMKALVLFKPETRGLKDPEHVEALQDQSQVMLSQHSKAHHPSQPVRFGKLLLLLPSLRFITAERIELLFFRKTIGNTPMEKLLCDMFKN

[15] = molecular target: Peroxisome proliferator-activated receptor gamma/Nuclear receptor corepressor 2 (Homo sapiens, UniProt P37231+Q9Y618); assay: Counterscreen for NR2E3 inverse agonists: TR-FRET-based biochemical high throughput dose response assay to identify inverse agonists of the interaction between peroxisome proliferator-activated receptor gamma (PPARg) and nuclear receptor co-repressor 2 (NCOR2).; assay type: functional
Ephrin type-A receptor 4 = Ephrin type-A receptor 4 (Mus musculus, UniProt Q03137); assay: EphA4 ligand-binding antagonists – biochemical, colorimetric, mouse EphA4, primary screen (AID 689); assay type: functional
[16] = molecular target: UDP-galactopyranose mutase (Mycobacterium tuberculosis, UniProt P9WIQ1); assay: Inhibitors of Mycobacterium tuberculosis UDP-galactopyranose mutase (UGM) enzyme Measured in Biochemical System Using Plate Reader - 2105-02_Inhibitor_Dose_CherryPick_Activity. [Related pubchem assays (depositor defined):AID504439]
Chain of UDP-galactopyranose mutase (P9WIQ1 whole entry): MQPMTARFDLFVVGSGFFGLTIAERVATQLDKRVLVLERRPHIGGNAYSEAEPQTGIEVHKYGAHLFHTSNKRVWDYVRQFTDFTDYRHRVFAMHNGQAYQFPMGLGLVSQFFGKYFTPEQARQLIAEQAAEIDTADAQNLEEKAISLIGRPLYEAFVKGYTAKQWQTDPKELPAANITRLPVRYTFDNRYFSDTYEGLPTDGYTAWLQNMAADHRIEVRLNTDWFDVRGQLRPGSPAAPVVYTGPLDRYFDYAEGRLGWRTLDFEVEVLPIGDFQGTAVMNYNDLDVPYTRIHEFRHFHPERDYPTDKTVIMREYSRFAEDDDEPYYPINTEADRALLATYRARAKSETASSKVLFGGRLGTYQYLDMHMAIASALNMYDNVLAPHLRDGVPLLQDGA

Cytochrome P450 2C19 = Cytochrome P450 2C19 (Homo sapiens, UniProt P33261); assay: Cytochrome panel assay with activity outcomes. Panel member name: p450-cyp2c19 Compounds with AC50 equal or less than 10 uM are considered active; assay type: functional
Mucolipin-3 [17] = molecular target: T1, Mucolipin-3 (Homo sapiens, UniProt Q8TDD5); assay: Dose response cell-based high-throughput screening assay for agonists of the transient receptor potential channel ML3 (TRPML3). [Related pubchem assays: 1526, 1424, 1448 ]; assay type: functional
T1 sequence (Q8TDD5 whole entry): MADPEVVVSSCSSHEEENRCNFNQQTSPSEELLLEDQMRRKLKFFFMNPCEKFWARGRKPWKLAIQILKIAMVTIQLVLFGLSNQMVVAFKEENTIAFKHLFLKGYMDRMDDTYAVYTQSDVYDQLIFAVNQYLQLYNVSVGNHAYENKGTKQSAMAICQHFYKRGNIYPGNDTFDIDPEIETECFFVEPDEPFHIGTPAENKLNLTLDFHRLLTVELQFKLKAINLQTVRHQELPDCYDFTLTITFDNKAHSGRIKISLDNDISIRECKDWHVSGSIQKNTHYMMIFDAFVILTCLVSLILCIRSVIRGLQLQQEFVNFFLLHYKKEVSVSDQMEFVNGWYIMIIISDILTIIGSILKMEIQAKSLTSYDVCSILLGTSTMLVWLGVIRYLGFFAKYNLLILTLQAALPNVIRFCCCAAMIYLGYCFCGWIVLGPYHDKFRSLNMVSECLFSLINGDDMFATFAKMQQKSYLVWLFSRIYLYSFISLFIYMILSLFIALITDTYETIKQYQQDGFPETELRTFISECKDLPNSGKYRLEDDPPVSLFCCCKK

Ion channel NompC [18] = molecular target: T2, Ion channel NompC (Danio rerio, UniProt Q7T1G6); assay: Late stage counterscreen for the probe development effort to identify selective agonists of the Transient Receptor Potential Channels 3 (TRPML3): fluorescence-based cell-based dose response assay for TRPN1 agonists.; assay type: functional
T2 sequence (Q7T1G6 whole entry): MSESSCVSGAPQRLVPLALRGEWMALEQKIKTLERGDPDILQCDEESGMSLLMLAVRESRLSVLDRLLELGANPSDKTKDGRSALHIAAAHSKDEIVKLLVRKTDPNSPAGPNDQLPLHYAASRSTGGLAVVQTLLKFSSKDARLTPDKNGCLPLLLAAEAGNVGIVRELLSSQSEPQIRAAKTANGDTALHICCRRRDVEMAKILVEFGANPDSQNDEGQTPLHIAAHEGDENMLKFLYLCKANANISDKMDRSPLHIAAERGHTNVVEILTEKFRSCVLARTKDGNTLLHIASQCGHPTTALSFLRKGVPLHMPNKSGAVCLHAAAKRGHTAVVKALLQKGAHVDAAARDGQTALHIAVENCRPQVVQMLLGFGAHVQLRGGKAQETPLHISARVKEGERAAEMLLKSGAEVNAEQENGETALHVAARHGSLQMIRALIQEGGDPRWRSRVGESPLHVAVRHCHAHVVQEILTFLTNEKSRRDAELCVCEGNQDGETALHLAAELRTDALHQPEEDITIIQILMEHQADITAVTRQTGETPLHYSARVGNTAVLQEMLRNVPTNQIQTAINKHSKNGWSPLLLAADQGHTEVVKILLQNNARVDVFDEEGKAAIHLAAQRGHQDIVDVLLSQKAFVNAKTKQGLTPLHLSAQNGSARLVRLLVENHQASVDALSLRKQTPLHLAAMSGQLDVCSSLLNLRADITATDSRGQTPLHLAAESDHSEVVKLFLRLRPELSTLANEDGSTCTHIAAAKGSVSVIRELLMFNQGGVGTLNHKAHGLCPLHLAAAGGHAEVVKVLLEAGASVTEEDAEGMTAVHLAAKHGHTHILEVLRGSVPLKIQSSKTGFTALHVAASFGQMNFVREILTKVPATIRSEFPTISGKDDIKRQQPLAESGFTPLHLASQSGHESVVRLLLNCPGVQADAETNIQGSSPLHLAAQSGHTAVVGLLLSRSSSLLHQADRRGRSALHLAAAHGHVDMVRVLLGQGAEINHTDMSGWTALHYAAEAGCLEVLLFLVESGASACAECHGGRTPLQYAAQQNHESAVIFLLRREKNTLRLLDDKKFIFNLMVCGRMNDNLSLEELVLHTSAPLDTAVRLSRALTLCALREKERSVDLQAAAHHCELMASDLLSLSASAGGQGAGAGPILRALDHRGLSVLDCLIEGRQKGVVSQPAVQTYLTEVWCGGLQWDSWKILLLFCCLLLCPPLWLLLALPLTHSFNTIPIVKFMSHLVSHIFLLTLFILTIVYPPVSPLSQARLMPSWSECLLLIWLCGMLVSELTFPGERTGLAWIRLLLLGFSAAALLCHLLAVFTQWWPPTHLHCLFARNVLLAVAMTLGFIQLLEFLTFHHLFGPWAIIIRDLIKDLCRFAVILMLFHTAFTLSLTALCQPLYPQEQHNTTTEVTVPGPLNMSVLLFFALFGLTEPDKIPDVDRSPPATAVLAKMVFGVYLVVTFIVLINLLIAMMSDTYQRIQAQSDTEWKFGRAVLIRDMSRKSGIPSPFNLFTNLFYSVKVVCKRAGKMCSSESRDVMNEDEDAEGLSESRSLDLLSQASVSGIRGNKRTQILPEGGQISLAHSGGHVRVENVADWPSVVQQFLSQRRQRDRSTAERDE

Ion channel NompC [19] = molecular target: T2, Ion channel NompC; assay: Fluorescence counterscreen assay for TRPML3 agonists: dose response cell-based high-throughput screening assay to identify agonists of the transient receptor potential channel N1 (TRPN1). [Related pubchem assays: 1526, 1424, 1448 ]; assay type: functional
Mucolipin-3 [20] = molecular target: T1, Mucolipin-3; assay: human mucolipin-3 activators, concentration-response – cell-based, calcium fluorescence, dose response (AID 2510); assay type: functional
NADPH oxidase 1 = NADPH oxidase 1 (Homo sapiens, UniProt Q9Y5S8); assay: Late-stage luminescence-based cell-based dose response assay to identify inhibitors of NADPH oxidase 1 (NOX1): Purchased analogs 2.; assay type: functional
Chain of NADPH oxidase 1 (Q9Y5S8 whole entry): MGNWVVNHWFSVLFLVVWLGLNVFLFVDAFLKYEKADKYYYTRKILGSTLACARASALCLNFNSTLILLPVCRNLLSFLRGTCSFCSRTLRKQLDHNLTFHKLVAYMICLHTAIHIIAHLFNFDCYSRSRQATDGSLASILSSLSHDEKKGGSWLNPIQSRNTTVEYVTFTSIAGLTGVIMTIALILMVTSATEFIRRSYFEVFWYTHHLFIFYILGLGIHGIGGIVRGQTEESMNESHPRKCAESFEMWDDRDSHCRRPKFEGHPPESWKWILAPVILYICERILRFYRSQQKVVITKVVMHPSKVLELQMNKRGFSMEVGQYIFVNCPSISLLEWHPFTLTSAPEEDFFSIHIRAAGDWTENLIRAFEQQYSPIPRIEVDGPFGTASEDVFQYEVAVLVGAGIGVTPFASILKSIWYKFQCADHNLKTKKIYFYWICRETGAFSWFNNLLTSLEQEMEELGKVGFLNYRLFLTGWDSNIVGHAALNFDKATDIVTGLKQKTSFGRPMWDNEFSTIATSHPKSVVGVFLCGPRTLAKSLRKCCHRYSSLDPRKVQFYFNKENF

Vero [21] = assay: inhibition of WNV-induced cytopathic effect – cell-based, CPE readout (AID 1621); assay type: functional; details: Chlorocebus sabaeus
Vero [22] = assay: mammalian cell viability reduction – secondary assay, cytotoxicity control for West Nile virus antiviral project, dose response (AID 1650); assay type: functional; details: Chlorocebus sabaeus
[23] = M. tuberculosis growth inhibition, HTS (AID 449762); assay type: functional
[24] = A High Throughput Confirmatory Assay used to Identify Novel Compounds that Inhibit Mycobacterium Tuberculosis in the absence of Glycerol.; assay type: functional
[25] = molecular target: Ubiquitin carboxyl-terminal hydrolase BAP1 (Homo sapiens, UniProt Q92560); assay: inhibition of BAP1 ubiquitin hydrolase activity – biochemical, dose response (AID 714); assay type: functional
Chain of Ubiquitin carboxyl-terminal hydrolase BAP1 (Q92560 whole entry): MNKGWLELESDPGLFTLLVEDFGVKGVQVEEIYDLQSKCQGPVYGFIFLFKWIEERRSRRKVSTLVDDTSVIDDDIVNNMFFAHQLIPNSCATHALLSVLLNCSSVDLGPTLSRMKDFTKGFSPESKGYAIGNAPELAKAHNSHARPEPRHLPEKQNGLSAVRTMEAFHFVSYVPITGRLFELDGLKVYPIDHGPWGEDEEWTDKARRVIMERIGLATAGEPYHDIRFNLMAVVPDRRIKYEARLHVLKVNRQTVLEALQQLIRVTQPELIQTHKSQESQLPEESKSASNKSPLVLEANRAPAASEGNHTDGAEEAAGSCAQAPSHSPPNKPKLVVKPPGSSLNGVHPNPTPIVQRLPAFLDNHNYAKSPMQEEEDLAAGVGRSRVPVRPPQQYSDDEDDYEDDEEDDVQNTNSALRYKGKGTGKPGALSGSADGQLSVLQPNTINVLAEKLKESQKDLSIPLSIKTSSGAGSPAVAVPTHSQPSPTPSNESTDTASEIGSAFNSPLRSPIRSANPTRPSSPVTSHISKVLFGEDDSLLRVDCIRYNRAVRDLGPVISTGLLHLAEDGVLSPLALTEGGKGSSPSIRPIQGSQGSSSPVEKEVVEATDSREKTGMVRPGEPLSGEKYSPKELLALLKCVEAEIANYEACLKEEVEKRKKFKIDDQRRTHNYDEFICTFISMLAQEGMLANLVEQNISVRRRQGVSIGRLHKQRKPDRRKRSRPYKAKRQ

[26] = Potency on glucagon-like peptide 1 release, dose-response in NCI-H716 cell line, half maximal inhibitory concentration (AID 1117344); assay type: functional, cell-based
[27] = glucagon-like peptide-1 release potency in STC-1, concentration-response, half-maximal inhibitory concentration in the STC-1 line (AID 1117345); assay type: functional, cell-based
[28] = Dd2 parasite growth inhibition in erythrocytes – SYBR Green, dry powder samples, set 9, dose response (AID 1159568); assay type: functional, cell-based
cells = assay type: functional, cell-based; details: INS-1E
[29] = IC50 of insulin release inhibition, rat insulinoma INS-1E line, 5 mM glucose, cell-based (AID 1117331); assay type: functional

SMILES: CCC(COC(=O)c1cc(OC)c(OC)c(OC)c1)(c1ccccc1)N(C)C (stereo unspecified)
- IC50 [1]: > 10 µM (inactive)
- EC50 [2]: > 92.5 µM (inactive) and 65.1 µM (inactive)
- IC50 [3]: 1.61 µM (active)
- IC50 [4]: > 20 µM (inactive)
- IC50 [5]: > 20 µM (inactive)
- EC50 (Mu-type opioid receptor): > 92.5 µM (inactive)
- IC50 [6]: > 20 µM (inactive)
- IC50 [7]: 0.142 µM (active)
- IC50 [8]: 2.45 µM (active)
- EC50 [9]: > 92.5 µM (inactive)
- IC50 [10]: > 10 µM (inactive)
- IC50 [11]: > 20 µM (inactive)
- IC50 [12]: > 20 µM (inactive)

SMILES: COCCNC(=O)C(c1ccncc1)N(C(=O)Cn1nnc2ccccc21)c1ccc(OC)cc1 (stereo unspecified)
- IC50 (14-3-3 protein gamma): 24.6 µM (active)

SMILES: O=[N+]([O-])c1ccc(-c2cc(O)n3nc(-c4ccc(Cl)cc4)cc3n2)cc1
- IC50 (Prothrombin): > 50 µM (not active)
- IC50 [13]: 1.72 µM (active)

SMILES: COc1ccc(-c2oc3ncn4nc(Cc5ccccc5)nc4c3c2-c2ccc(OC)cc2)cc1
- IC50 [14]: 7.69 µM (active)
- IC50 [15]: 6.02 µM (active)

SMILES: CCCCn1nc(-c2ccccc2)c2nc3ccccc3nc21
- IC50 (Ephrin type-A receptor 4): 13.1 µM (active)
- AC50 [16]: 41.9 µM (active)
- AC50 (Cytochrome P450 2C19): inconclusive

SMILES: Cc1ccc(S(=O)(=O)n2nccc2-c2c(-c3ccccc3)noc2C)cc1
- EC50 (Mucolipin-3 [17]): 0.819 µM (active)
- EC50 (Ion channel NompC [18]): > 29.9 µM (not active)
- EC50 (Ion channel NompC [19]): > 29.9 µM (not active)
- EC50 (Mucolipin-3 [20]): 1.01 µM (active)

SMILES: O=[N+]([O-])c1ccc(/C=N/Nc2c(Cl)cc(Cl)cc2Cl)cc1
- IC50 (NADPH oxidase 1): > 17 µM (not active)

SMILES: CC(C)c1cc(C(C)C)c(S(=O)(=O)N2c3ccccc3[C@]3(Br)C[C@H]4C(=O)N[C@@H](Cc5ccccc5)C(=O)N4[C@H]23)c(C(C)C)c1
- IC50 (Vero [21]): 39.9 µM (active)
- CC50 (Vero [22]): 13.7 µM (active)

SMILES: CCCOc1cccc(C(=O)NC(=S)Nc2ccc(N3CCN(C)CC3)cc2)c1
- IC50 [23]: > 100 µM (active)
- IC50 [24]: > 100 µM (active)

SMILES: Nc1c(C(O)(C(F)(F)F)C(F)(F)F)ccc2ccccc12
- IC50 [25]: > 50 µM (not active)

SMILES: NC[C@@H]1O[C@H](O[C@H]2[C@H](O)[C@H](O[C@H]3[C@@H](O)[C@H](N)C[C@H](N)[C@H]3O[C@H]3O[C@H](CN)[C@H](O)[C@H](O)[C@H]3N)O[C@@H]2CO)[C@@H](N)[C@@H](O)[C@@H]1O
- IC50 [26]: > 40 µM (inactive)
- IC50 [27]: > 40 µM (inactive)

SMILES: Cc1ccccc1-c1ccc([C@@H]2[C@H](CO)N3CCCCN(S(=O)(=O)Cc4ccccc4)C[C@@H]23)cc1
- AC50 [28]: 0.878 µM (active)

SMILES: Oc1ccc(CCNCCCCCCNCCc2ccccc2)cc1O [DOPEXAMINE]
- IC50 (cells): > 33.3 µM (inactive)
- IC50 [29]: > 33.3 µM (inactive)
